Several values for one entry are separate records, joined by “and”; a condition that tells them apart may be missing. Identical values can stand only once.
Legend:
[1] = target: B-RAF (Homo sapiens, UniProt P15056, V600E); experiment: DELFIA Kinase Assay; type: biochemical; details: 100 μM ATP
Method: Biological Methods—DELFIA Kinase Assay
Compounds were assessed by a kinase assay performed according to the following protocol.
DELFIA Kinase Buffer (DKB):
DKB1 (DKB with B-RAF and MEK Protein):
Combine 4950 μL of DKB and 50 μL of 2.5 mg/ml GST-MEK stock (to give […] of MEK per 40 μL). Then add 22.5 μL of B-RAF to give ˜0.2 μL of B-RAF per 40 μL.
DKB2 (DKB with MEK Protein):
Combine 4950 μL of DKB and 50 μL of 2.5 mg/ml GST-MEK stock (to give 1 mg of MEK per 40 μL). Use 500 μL of this for the blow out (BO) and the empty vector (EV) control.
100 mM stock, dilute to 500 μM to give 100 μM final concentration in assay.
Inhibitors (Test Compounds):
Phospho-MEK½ CST #9121S diluted 1:1000 in DELFIA assay buffer (AB). Preincubate antibody in the AB for 30 minutes at room temperature prior to use.
Anti-rabbit-Eur labelled secondary Perkin Elmer #AD0105 diluted 1:1000 in DELFIA assay buffer (AB). Preincubate antibody in the AB for 30 minutes at room temperature prior to use. (Primary and secondary antibodies were incubated together.)
1. Preblock wells with 5% milk in TBS for 1 hour.
2. Wash wells with 3× with 200 μL TBS.
3. Plate out 40 μL of DKB1 for all inhibitors (test compounds), DMSO control, and optionally other control compounds.
4. Plate out 40 μL of DKB2 for BO and EV wells.
5. Add inhibitors (test compounds) at 0.5 μL per well according to desired plate layout.
6. Add 0.5 μL DMSO to vehicle control wells.
7. Add 2 μL of B-RAF to BO and EV wells.
8. Pre-incubate with inhibitors (test compounds) for 10 minutes at room temperature with shaking.
9. Add 10 μL of 500 μM ATP stock, in DKB, to give 100 μM assay concentration.
10. Seal plates with TopSeal and incubate at room temperature with shaking for 45 minutes.
11. Wash plates 3× with 200 μL 0.1% Tween20/Water to terminate reaction.
12. Add 50 μL per well of antibody mix and incubate for 1 hour at room temperature with shaking.
13. Wash plates 3× with 200 μL 0.1% Tween20/Water.
14. Add 100 μL DELFIA enhancement solution per well, cover in foil, and incubate at room temperature for 30 minutes with shaking.
15. Read on Victor using Europium protocol.
(§1) Values for the blank (Empty Vector) are subtracted from all values. The DMSO controls are set as 100% activity and assay points (the response) are calculated as a percentage of the DMSO control. Data are plotted using Graphpad Prism software and a non-linear regression line is calculated using a variable slope sigmoidal dose-response equation (Y=Bottom+(Top−Bottom)/(1+10^((LogEC50−X)*HillSlope)) where X is the logarithm of concentration. Y is the response). The IC50 generated by this procedure is the concentration of the drug that produces a percentage control fluorescence value midway between the saturation, and zero-effect plateaus. Three independent assays are usually performed and the mean IC50 is reported.

[2] = system: WM266.4 melanoma cells; experiment: SRB Cell Proliferation Assay (SRB GI50); type: cell-based; details: Homo sapiens, WM 266-4, 144 h, 6 days growth
Method: Biological Methods—SRB Cell Proliferation Assay (SRB GI50)
Cultures of WM266.4 melanoma cells are routinely cultured in DMEM/10% foetal bovine serum, at 37° C., in 5% CO2 water saturated atmosphere. Cultures are maintained in exponential growth phase by sub-culturing before having become confluent (3-5 day intervals). Single cell suspensions are prepared by harvesting an 80 cm^2 tissue culture flask with 5 mL commercial trypsin EDTA. After 5 minutes, the detached cells are mixed with 5 mL fully complemented culture medium and centrifugally pelleted (1000 rpm for 7 minutes). After aspirating the supernatant, the cell pellet is re-suspended in 10 mL fresh medium and the cells fully disaggregated by drawing the whole volume up/down 5 times through a 19-gauge needle. The concentration of the cells is determined using a haemocytometer (1/10 dilution). A suitable volume to give at least a 2-fold excess for the number of tests being conducted, typically 100-200 mL, is prepared by diluting the cell suspension to 10,000/mL, and 100 μL/well dispensed into 96 well plates using a programmable 8-channel peristaltic pump, giving 1000 cells/well, leaving column 12 blank. The plates are returned to the incubator for 24 hours to allow the cells to re-attach.
The compounds being tested are prepared at 20 mM in dimethylsulphoxide. Aliquots (200 μL) are diluted into 20 mL culture medium giving 200 μM, and 10 serial dilutions of 3× performed by transferring 5 mL to 10 mL. Aliquots (100 μL) of each dilution are added to the wells, using an 8-channel pipettor, thus performing a final further 2× dilution, and giving doses ranging from 100 μM to 0.005 μM. Column 11 receives plain culture medium only. Each compound is tested in quadruplicate, each replicate being the average of four wells, and two plates per compound.
After a further 6 days growth, the plates are emptied, and the cells are fixed in 10% trichloroacteic acid for 10 minutes on ice. After thorough rinsing in running tap water, the plates are dried, and stained by adding 50 μL of a solution of 0.1% sulphorhodamine-B in 1% acetic acid, for 10 minutes at room temperature. The stain is poured out and the plates thoroughly rinsed under a stream of 1% acetic acid, thus removing unbound stain, and dried. The bound stain is taken into solution by addition of 150 μL Tris buffer pH 8, followed by 10 minutes on a plate-shaker (approximately 500 rpm). The absorbance at 540 nm in each well (being proportional to the number of cells present) is determined using a plate reader.
After averaging the results in rows A-D and E-H, the blank value (row 12) is subtracted, and results expressed as percentage of the untreated value (row 11). […] The GI50 generated by this procedure is the concentration of the drug that produces a percentage control A540 midway between the saturation, and zero-effect plateaus.

[3] = system: pERK; experiment: Cell Based Phospho-ERK Assay; details: 6 h, cells incubated with test compound for 6 hours
Method: Biological Methods—Cell Based Phosho-ERK Assay
Compounds were assessed using a cell-based assay which was performed according to the following protocol.
Plate out 16,000 cells/well in 99 μL medium in a 96-well plate.
1. Add 1 μL inhibitor to the cells […].
2. Incubate the cells with test compound for 6 hours at 37° C.
3. Aspirate off the solution from all of the wells.
4. Fixate the cells with 100 μL 4% formaldehyde/0.25% Triton X-100 PBS per well.
5. Incubate the plate for 1 hour at 4° C.
6. Aspirate off the fixing solution and add 300 μL TBS per well.
7. Leave the plate overnight at 4° C.
1. Wash the plate 2× with 200 μL PBS per well.
2. Block with 100 μL 5% dried milk in TBS.
3. Incubate the plate for 20 minutes at 37° C.
4. Wash the plate 2× with 0.1% tween/H2O.
5. Add 50 μL of 3 μg/mL primary antibody pERK (Sigma M8159), diluted in 5% milk powder/TBS, to each well.
6. Incubate the plate for 2 hours at 37° C.
7. Wash the plate 3× with 0.1% tween/H2O.
8. Add 50 μL of 0.45 μg/mL secondary Europium-labelled anti-mouse antibody (Perkin Elmer) to each well.
9. Incubate the plate for 1 hour at 37° C.
10. Wash the plate 3× with 0.1% tween/H2O.
11. Add 100 μL enhancement solution (Perkin Elmer) to each well.
12. Leave the plate for approximately 10 minutes at room temperature before gently shaking the plate.
13. Read Europium Time Resolved Fluorescence in Victor2.
14. Wash the plate 2× with 0.1% tween/H2O.
15. Measure the protein concentration with BCA (Sigma) by adding 200 μL of solution per well.
16. Incubate the plate for 30 minutes at 37° C.
17. Read absorbance levels at 570 nm in a plate reader.
Note that Europium counts are normalised for protein levels by dividing counts by absorbance.
as §1, with “(no cells)” for “(Empty Vector)”

Sequence of B-RAF (P15056 whole entry V600E): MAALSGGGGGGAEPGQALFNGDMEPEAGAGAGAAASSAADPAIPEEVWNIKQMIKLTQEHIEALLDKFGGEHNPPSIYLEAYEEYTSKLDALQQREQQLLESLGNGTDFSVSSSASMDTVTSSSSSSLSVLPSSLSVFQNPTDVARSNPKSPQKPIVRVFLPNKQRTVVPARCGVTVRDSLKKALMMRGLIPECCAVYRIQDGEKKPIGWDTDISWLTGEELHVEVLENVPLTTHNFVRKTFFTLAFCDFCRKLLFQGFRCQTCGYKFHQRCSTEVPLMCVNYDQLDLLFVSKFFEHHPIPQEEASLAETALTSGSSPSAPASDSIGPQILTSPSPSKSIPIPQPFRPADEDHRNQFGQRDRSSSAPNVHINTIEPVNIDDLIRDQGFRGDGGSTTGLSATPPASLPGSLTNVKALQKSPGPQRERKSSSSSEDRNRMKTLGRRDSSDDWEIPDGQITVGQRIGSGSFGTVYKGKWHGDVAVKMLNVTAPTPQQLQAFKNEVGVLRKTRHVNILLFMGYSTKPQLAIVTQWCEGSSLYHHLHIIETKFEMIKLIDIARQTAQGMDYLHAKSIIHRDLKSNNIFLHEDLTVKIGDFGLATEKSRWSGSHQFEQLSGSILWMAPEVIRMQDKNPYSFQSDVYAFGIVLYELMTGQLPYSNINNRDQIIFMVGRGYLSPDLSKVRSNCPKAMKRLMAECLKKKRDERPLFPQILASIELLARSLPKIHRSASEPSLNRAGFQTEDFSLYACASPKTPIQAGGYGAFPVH

| IC50 [1] | GI50 [2] [µM] | IC50 [3] [µM] | Compound |
| --- | --- | --- | --- |
| ≤ 1 µM | ≤ 10 | ≤ 10 | Cc1nc2c(Oc3ccc(NC(=O)Nc4cc(C(F)(F)F)ccc4F)c4ncccc34)ccnc2[nH]c1=O [BB-001, 5-[(8-Amino-quinolinyl-5-oxy)carbonylamino-(2-fluoro-5-trifloromethylphenyl)]-pyridin-[2,3]-3-methylpyrazin-2-one] |
| – | ≤ 10 | ≤ 10 | Cc1ccc(-n2nc(C(C)(C)C)cc2NC(=O)Nc2ccc(Oc3ccnc4[nH]c(=O)c(C)nc34)c3cccnc23)cc1 [BB-002, 5-[(8-Amino-quinolinyl-5-oxy)carbonylamino-5-(1-N-p-tolyl-3-t-butyl-imidazolyl)]-pyridin-[2,3]-3-methylpyrazin-2-one] |
| ≤ 1 µM | ≤ 10 | ≤ 10 | O=C(Nc1cc(C(F)(F)F)ccc1F)Nc1ccc(Oc2ccnc3ncc(=O)[nH]c23)c2cccnc12 [BB-004, 5-[(8-Amino-quinolinyl-5-oxy)carbonylamino-5-(2-fluoro-5-trifluoromethyl-phenyl)]-pyridin-[2,3]pyrazin-3-one] |
| ≤ 1 µM | ≤ 10 | ≤ 10 | Cc1nc2c(Oc3ccc(NC(=O)Nc4cc(C(C)(C)C)nn4C)c4ncccc34)ccnc2[nH]c1=O [BB-006, 5-[(8-Amino-quinolinyl-5-oxy)carbonylamino-5-(1-methyl-3-t-butyl-imidazolyl)]-pyridin-[2,3]-3-methylpyrazin-2-one] |
| – | ≤ 10 | ≤ 10 | Cn1c(=O)[nH]c2c(Oc3ccc(NC(=O)Nc4cc(C(C)(C)C)nn4-c4ccccc4)c4ncccc34)ccnc21 [AA-016] |
| ≤ 1 µM | ≤ 10 | ≤ 10 | C=CCn1nc(C(C)(C)C)cc1NC(=O)Nc1ccc(Oc2ccnc3[nH]c(=O)cnc23)c2cccnc12 [BB-013] |
| – | ≤ 10 | ≤ 10 | CC(C)(C)c1cc(NC(=O)Nc2ccc(Oc3ccnc4ncc(=O)[nH]c34)c3cccnc23)n(-c2ccccc2)n1 [BB-010] |

The remaining lines, values behind:

| Compound | IC50 [1] | GI50 [2] [µM] | IC50 [3] [µM] |
| --- | --- | --- | --- |
| O=C(Nc1cc(C(F)(F)F)ccc1F)Nc1ccc(Oc2ccnc3[nH]c(=O)[nH]c23)c2cccnc12 [AA-010, 4-[(5-Oxy-quinolinyl-8-amino)carbonylamino-(2-fluoro-5-trifluoromethyl-phenyl)]-pyridin-5,6-imidazolone] | ≤ 1 µM | ≤ 10 | ≤ 10 |
| Cn1c(=O)[nH]c2nccc(Oc3ccc(NC(=O)Nc4cc(C(C)(C)C)nn4-c4ccccc4)c4ncccc34)c21 [AA-012, 4-[(5-Oxy-quinolinyl-8-amino)carbonyl-amino-(1-N-phenyl-3-t-butyl-pyrazol-5-yl)]-pyridin-5-N-methyl,6-imidazolone] | ≤ 1 µM and 1 µM | – | – |
| Cc1ccc(-n2nc(C(C)(C)C)cc2NC(=O)Nc2ccc(Oc3ccnc4[nH]c(=O)n(C)c34)c3cccnc23)cc1 [AA-011, 4-[(5-Oxy-quinolinyl-8-amino)carbonyl-amino-(1-N-p-tolyl-3-t-butyl-pyrazol-5-yl)]-pyridin-5-N-methyl,6-imidazolone] | – | ≤ 10 | ≤ 10 |
| O=C(Nc1cc(C(F)(F)F)ccc1F)Nc1ccc(Oc2ccnc3[nH]c(=O)[nH]c23)c2ncccc12 [AA-001, 4-[(5-Amino-quinolinyl-8-oxy)carbonylamino-(2-fluoro-5-trifloromethylphenyl)]-pyridin-5,6-imidazolone] | ≤ 1 µM | ≤ 10 | – |
| Cn1c(=O)[nH]c2c(Oc3ccc(NC(=O)Nc4cc(C(F)(F)F)ccc4F)c4ncccc34)ccnc21 [AA-013, 5-[(8-Amino-quinolinyl-5-oxy)carbonylamino-3-(2-fluoro-5-trifluoromethyl-phenyl)]-Pyridin-[2,3]-N-methylimidazol-2-one] | ≤ 1 µM | – | ≤ 10 |
| O=C(Nc1ccc(Cl)c(C(F)(F)F)c1)Nc1ccc(Oc2ccnc3[nH]c(=O)[nH]c23)c2ncccc12 [AA-002, 4-[(8-Oxy-quinolinyl-5-amino)carbonylamino-(3-trifluoromethyl-4-chloro-phenyl)]-pyridin-5,6-imidazolone] | ≤ 1 µM | – | – |
| Cc1ccc(-n2nc(C(C)(C)C)cc2NC(=O)Nc2ccc(Oc3ccnc4c3[nH]c(=O)n4C)c3cccnc23)cc1 [AA-015] | – | ≤ 10 | ≤ 10 |
| CC(C)(C)c1cc(NC(=O)Nc2ccc(Oc3ccnc4[nH]c(=O)[nH]c34)c3ncccc23)n(-c2ccccc2)n1 [AA-006, 4-[(8-Oxy-quinolinyl-5-amino)carbonyl-amino-(1-N-phenyl-3-t-butyl-pyrazol-5-yl)]-pyridin-5,6-imidazolone] | – | ≤ 10 | ≤ 10 |

— US8383816B2, “Aryl-quinolyl compounds and their use” (Cancer Research Technology Limited, priority 2008, dated 2013)
